Data: US20250327074A1 (SHAOXING INSTITUTE, ZHEJIANG UNIVERSITY, priority 2024, published 2025)

Test system: TCG codon, mammalian cells
Test: TCG codon recoding efficiency of all amino acids (Table 1)
Type: cell-based
Conditions: TCG codon recoding of the unnatural amino acid with the aaRS and mutation of the same table line; class symbols
Excerpt: Specific details are shown in Table 1 below, where “wt” represents the wild-type aminoacyl-tRNA synthetase, “mutation sites” indicate the positions and types of mutations related to specific unnatural amino acid binding on the wild-type aminoacyl-tRNA synthetase, and “unnatural amino acid” represents the unnatural amino acid corresponding to the mutated aminoacyl-tRNA synthetase. In the unnatural amino acid encoding efficiency, “+” indicates a recoding efficiency greater than 40%, “++” greater than 60%, and “+++” greater than 80%.
Accordingly, this application compiles all amino acids reported in the literature that are recognized by orthogonal aminoacyl-tRNA synthetases in mammalian systems and evaluates their recoding efficiency using the TCG codon as an example.

| Structure (SMILES) | Recoding rate (%) |
| --- | --- |
| Cc1ccc2c(C[C@H](N)C(=O)O)c[nH]c2c1C [compound 295] | +++ (“+++” greater than 80%) |
| COc1ccc2c(C[C@H](N)C(=O)O)c[nH]c2c1OC [compound 296] | +++ (“+++” greater than 80%) |
| COc1cccc2c(C[C@H](N)C(=O)O)c[nH]c12 [compound 303] | +++ (“+++” greater than 80%) |
| N[C@@H](Cc1ccc(C#CCCC2CCCC2)cc1)C(=O)O [compound 304] | ++ (“++” greater than 60%) |
| CCCCC#Cc1ccc(C[C@H](N)C(=O)O)cc1 [compound 310] | +++ (“+++” greater than 80%) |
| CCCCCC#Cc1ccc(C[C@H](N)C(=O)O)cc1 [compound 311] | +++ (“+++” greater than 80%) |
| CCCCCCC#Cc1ccc(C[C@H](N)C(=O)O)cc1 [compound 312] | ++ (“++” greater than 60%) |
| CCCCCCCC#Cc1ccc(C[C@H](N)C(=O)O)cc1 [compound 313] | + (“+” indicates a recoding efficiency greater than 40%) |
| CCCCC=Cc1ccc(C[C@H](N)C(=O)O)cc1 [compound 314] | ++ (“++” greater than 60%) |
| CCCCC=Cc1ccc(C[C@H](N)C(=O)O)cc1 [compound 315] | +++ (“+++” greater than 80%) |
| N[C@@H](Cc1ccc(C#CCCCBr)cc1)C(=O)O [compound 316] | ++ (“++” greater than 60%) |
| N[C@@H](Cc1ccc(C#CCCCCCBr)cc1)C(=O)O [compound 317] | + (“+” indicates a recoding efficiency greater than 40%) |
| N[C@@H](Cc1ccc(C#CCc2ccccc2)cc1)C(=O)O [compound 318] | +++ (“+++” greater than 80%) |
| N[C@@H](Cc1ccc(C#CCCCc2ccccc2)cc1)C(=O)O [compound 320] | ++ (“++” greater than 60%) |
| N[C@@H](Cc1ccc(C=CCCc2ccc3ccccc3c2)cc1)C(=O)O [compound 321] | ++ (“++” greater than 60%) |
| N[C@@H](Cc1ccc(C=CCCc2ccc3c(c2)CCC3)cc1)C(=O)O [compound 322] | ++ (“++” greater than 60%) |
| C#Cc1cc(C[C@H](N)C(=O)O)ccc1OS(=O)(=O)F [compound 324] | ++ (“++” greater than 60%) |
| C#CCn1cc(C[C@H](N)C(=O)O)c2ccccc21 [compound 326] | ++ (“++” greater than 60%) |

Same assay, conditions: TCG codon recoding of the unnatural amino acid with the aaRS and mutation of the same table line; numeric values

| Structure (SMILES) | Recoding rate (%) |
| --- | --- |
| COc1ccc2c(C[C@H](N)C(=O)O)c[nH]c2c1 [compound 294] | 63 |
| N[C@@H](Cc1ccc(I)cc1)C(=O)O [compound 297] | 43 |
| [N-]=[N+]=Nc1ccc(C[C@H](N)C(=O)O)cc1 [compound 298] | 88 |
| N[C@@H](Cc1csc2ccccc12)C(=O)O [compound 299] | 84 |
| Cc1cccc2c(C[C@H](N)C(=O)O)c[nH]c12 [compound 300] | 69 |
| N[C@@H](Cc1c[nH]c2c(Cl)cccc12)C(=O)O [compound 301] | 71 |
| N#Cc1cccc2c(C[C@H](N)C(=O)O)c[nH]c12 [compound 302] | 69 |
| CC(=O)c1ccc(C[C@H](N)C(=O)O)cc1 [compound 305] | 92 |
| N#Cc1cccc(C[C@H](N)C(=O)O)c1 [compound 306] | 75 |
| N[C@@H](Cc1ccc2ccccc2c1)C(=O)O [compound 307] | 66 |
| COc1ccc(C[C@H](N)C(=O)O)cc1 [compound 308] | 68 |
| Cn1cc(C[C@H](N)C(=O)O)c2ccccc21 [compound 309] | 63 |
| N[C@@H](Cc1ccc(O)c(O)c1)C(=O)O [compound 323] | 48 |
| C=Cn1cc(C[C@H](N)C(=O)O)c2ccccc21 [compound 325] | 59 |
| COc1ccc2c(C[C@H](N)C(=O)O)c[nH]c2c1 [compound 327] | 80 |
| N[C@@H](Cc1ccc(Br)cc1)C(=O)O [compound 328] | 51 |
| N[C@@H](Cc1cccc(I)c1)C(=O)O [compound 329] | 56 |
